The test system of one data set is UC cell lines. The following applies: cited from earlier work.
For the next data set, the system named is solid tumors. The following applies: cited from earlier work.
The nature of data set [1]: Phase 2 trial: plasma pharmacokinetics. The following applies: for Tmax: first 2-hour intravenous infusion of 300 mg. The class given is in vivo, patients.
Data set [2] deals with locally advanced or metastatic urothelial cancer. Description: Phase 2 trial: tumor response. The class given is in vivo, patients.
Data set [3] has as its system patients with locally advanced or metastatic urothelial cancer. Description: Phase 2 trial: safety, adverse events. It counts as in vivo.
For another data set, the system named is metastatic UC. The following applies: cited from earlier work; for long-term progression-free survival (PFS): at 5 years; for complete response (CR) rate / median overall survival (mOS) / overall response rate: first-line, phase 3.
A further data set has as its system urothelial cancer. The following applies: cited from earlier work.
A further data set deals with advanced UC. The following applies: vinflunine plus BSC, vs 1.5 months BSC alone, P = .001; cited from earlier work.
Setting [4] is: post hoc subgroup: disease progression >6 months after most recent chemotherapy.
Setting [5] is: post hoc subgroup: disease progression ≤6 months after most recent chemotherapy.
Where [6] appears, read: subgroup: patients who did not escalate.
Setting [7] is: subgroup: patients who escalated to volasertib 350 mg.

Values joined by “and” are separate entries in the source; they are usually repeats but may differ in a detail not shown here. Equal entries are not always repeated.

The AUC(0-inf) is total exposure, with the tail of the curve extrapolated. Broadly, the Cmax is the highest concentration seen after dosing. By MRT is commonly meant the average time that molecules of a dose stay in the body. As a reminder, the Vd is the apparent volume that relates the amount in the body to the concentration in plasma or blood. Lower therefore signals confinement near the circulation. Broadly, the clearance is the volume of plasma or blood freed of the substance per unit of time. For orientation: half-life means the time in which the quantity being followed falls by half. The low end stands for fast loss, the high end for slow loss. Broadly, the Tmax is the time from dosing to the highest level.

Regarding `CC[C@@H]1C(=O)N(C)c2cnc(Nc3ccc(C(=O)N[C@H]4CC[C@H](N5CCN(CC6CC6)CC5)CC4)cc3OC)nc2N1C(C)C` [Volasertib], in the data set on UC cell lines, the “mitotic arrest and apoptosis in UC cells” value was “promote mitotic arrest and apoptosis”. For the same molecule, the “proliferation of multiple UC cell lines” value in the data set on UC cell lines (ref data on file, Boehringer Ingelheim) was “inhibited the proliferation”. Also, in the data set on solid tumors (dose-escalation clinical phase 1 trial), the maximum tolerated dose was 400 mg. For the same molecule, in the data set with solid tumors (in vivo, iv), the “recommended dose for phase 2 trials” value is reported as 300 mg. For the same molecule, the “tumor response in phase 1 trials” value in the data set with solid tumors (patients with heavily pretreated, metastatic UC) is “partial responses”. The “effect of sex, age, weight, body mass index, or body surface area on PK profile” value in data set [1] (data not shown) is on record as “not significantly affected”. In addition, in data set [1] (human, plasma, iv, 300 mg), the area under the curve AUC(0-inf) came out at 5470 ng·h/mL, the Cmax was 253 ng/mL, the MRT worked out at 136 h and the volume of distribution (Vd) is 7470 L. In data set [1] (human, plasma, iv, 300 mg), the clearance amounted to 914 mL/min and the half-life was 150 h. In data set [1] (human, plasma, iv, 300 mg, Median), the time of peak concentration (Tmax) is around 2 h. In addition, the Tmax in data set [1] (human, plasma, iv, 300 mg, Range) was in the range of 1.53 to 4.17 h. Moreover, the PK behavior result in data set [1] (plasma concentration-time course) was “multiexponential PK behavior”. In addition, in data set [2] (N = 50), the “Disease control: PR + SD” value is listed as 20 (40) No. of patients (%), the “OS rate at 3 mo” value amounted to 77.2%, the “OS rate at 6 mo” value was 55.5% and the “OS: Median [95% CI]” value was 8.5 [3.9-12.1] mo. Also, in data set [2] (N = 50), the “PFS rate at 3 mo” value was found to be 32%, the “PFS rate at 6 mo” value worked out at 20%, the “PFS: Median [95% CI]” value is 6.1 [5.6-11.1] wk and the “patients with partial response” value came out at 14%. For the same molecule, the “patients with stable disease” value in data set [2] (N = 50) turned out to be 26%. Also, the “Response: SD” value in data set [2] (best overall response, N = 50) is given as 13 (26) No. of patients (%). The “patients who achieved a PR as best overall response” value in data set [2] (final analysis, N = 50) was 7 patients. For the same molecule, in data set [2] (final analysis, N = 50, all PRs), the overall response rate is 14%. In data set [2] (in vivo), the “Duration of disease control, PR or SD: Median” value was 27.0 wk and the “Duration of disease control, PR or SD: range” value is reported as 10.1-77.3 wk. In data set [2] (of the first 20 patients who completed 4 treatment cycles), the “patients with PR at preplanned interim efficacy analysis” value is 2 patients. In data set [2] (setting [4]), this molecule displayed a mPFS of 10.1 weeks and a response rate of 15%. Moreover, in data set [2] (setting [5]), the mPFS came to 5.6 weeks and the response rate is recorded as 14%. For the same molecule, in data set [2] (responders), the “Duration of PR: range” value is on record as 29.1-77.3 wk. For the same molecule, in data set [2] (setting [6]), the “PR / response rate” value is 7.4% and 7%; the mOS was 5.8 months; the mPFS is 6.0 weeks and 6 weeks. Also, in data set [2] (setting [7]), the “PR / response rate” value was 21.7% and 22%; the mOS came out at 10.6 months; the mPFS is on record as 11.1 weeks. For the same molecule, in data set [3] (human, in vivo), the “Adverse event leading to dose reduction: Diarrhea” value is given as 1 (2) No. of Patients (%), the “Adverse event leading to dose reduction: ECG: Prolonged QT” value is given as 1 (2) No. of Patients (%), the “Adverse event leading to dose reduction: Fatigue” value is on record as 1 (2) No. of Patients (%) and the “Adverse event leading to dose reduction: Nausea” value is 1 (2) No. of Patients (%). In data set [3] (human, in vivo), the “Adverse event leading to dose reduction: Neutropenia” value is recorded as 2 (4) No. of Patients (%); the “Adverse event leading to dose reduction: Thrombocytopenia” value is on record as 3 (6) No. of Patients (%); the “febrile neutropenia (grade 3)” value is 1 episode; the “grade 3 and 4 anemia” value was 16%. Moreover, in data set [3] (human, in vivo), the “grade 3 and 4 neutropenia” value came to 28%; the “grade 3 and 4 thrombocytopenia” value is 20%; the “patients with dose reductions because of unacceptable toxicities in cycle 1” value is recorded as 4 patients; the “patients with dose reductions because of unacceptable toxicities, overall” value was determined as 14%. Besides, the “treatment discontinuation because of AE” value in data set [3] (human, in vivo) is listed as 1 n. Further, in data set [3] (in vivo), the “clinically relevant side effect such as arrhythmias or cardiac dysfunction” value is listed as “No clinically relevant side effect”, the cumulative toxicity entry is recorded as “No cumulative toxicity was observed”, the “grade 3 QTc prolongation” value was “One patient” and the safety profile result is “acceptable safety profile”. Moreover, in data set [3] (three patients died during the study because of disease progression), the “deaths attributed to the study treatment” value is recorded as “none”.

For “methotrexate, vinblastine, doxorubicin, and cisplatin [MVAC]”, in the data set on metastatic UC, the “long-term progression-free survival (PFS)” value is on record as 11.3%, the “complete response (CR) rate” value is recorded as “approximately 12%”, the “median overall survival (mOS)” value is reported as 14.8 months and the overall response rate is recorded as 46%.

Regarding `Cc1ccc(Nc2nccc(N(C)c3ccc4c(C)n(C)nc4c3)n2)cc1S(N)(=O)=O` [pazopanib], in the data set on urothelial cancer, the “antitumor activity in nonrandomized phase 2 trials” value is reported as “modest activity”.

For the molecule `CC[C@]12C=CCN3CC[C@@]4(c5cc([C@@]6(C(=O)OC)C[C@@H]7C[C@@H](C(C)(F)F)CN(Cc8c6[nH]c6ccccc86)C7)c(OC)cc5N(C)[C@H]4[C@@](O)(C(=O)OC)[C@@H]1OC(C)=O)[C@@H]32` [Vinflunine, vinflunine], the “median PFS (mPFS)” value in the data set with advanced UC is reported as 3.0 months.

On to gemcitabine plus cisplatin [GC], for which, in the data set on metastatic UC, the “long-term progression-free survival (PFS)” value is on record as 9.8%, the “complete response (CR) rate” value was “approximately 12%”, the “median overall survival (mOS)” value is reported as 13.8 months and the overall response rate is 49%.
